Assay results from patent publication US9371539B2, “DNA encoding ring zinc-finger protein and the use of the DNA in vectors and bacteria and in plants” (Board of Trustees of Michigan State University, priority 2006, dated 2016).

Experiments:
XERICO = assay: Expression of XERICO upon ABA treatment; assay type: in vivo, Arabidopsis thaliana; details: ABA 10 μM; up to 3-hours post-treatment
Procedure: Total RNA was extracted using the Trizol reagent method (Gibco-BRL, Gaithersburg, Md.). For northern blot analysis, 10 μg of total RNA from each sample was denatured and separated using a 1% agarose-formaldehyde gel. RNA was transferred onto a Hybond-N+ membrane (Stratagene, La Jolla, Calif.) by capillary action. Gene-specific probes were prepared by PCR and labeled with [^32P]-dCTP using a Prime-it II Random Primer Labeling kit (Stratagene, La Jolla, Calif.). Primers used in this analysis were following: XERICO (forward; SEQ ID NO:439, 5′-[…]-3 and reverse; SEQ ID NO:440, 5′-[…]-3′), AtNCED3 (forward, SEQ ID NO:441, 5′-[…]-3′ and reverse; SEQ ID NO:442, 5′-[…]-3′), AtCYP707A2 (forward; SEQ ID NO:443, 5′-[…]-3′ and reverse; SEQ ID NO:444, 5′-[…]-3′), RD29a (forward; SEQ ID NO:445, 5′-[…]-3′ and reverse; SEQ ID NO:446, 5′-[…]-3′), and Actin 8 (forward; SEQ ID NO:447, 5′-[…]-3′ and reverse; SEQ ID […], 5′-[…]-3′). Hybridization was carried out using ULTRAhyb® according to the manufacturer's instructions (Ambion, Austin, Tex.), and a Kodak Biomax film (Sigma) was exposed to the blot. An Actin 8 gene (SEQ ID NO:457) or ethidium bromide-stained ribosomal RNA was used as a loading control.

AtNCED3 = assay: RNA gel blot analysis of response to ABA treatment; assay type: in vivo, Arabidopsis thaliana; details: 10 μM ABA up to 24 hour; both wild-type and 35S::XERICO plants
Procedure: (a) RNA gel blot analysis showing a response to ABA. Wild-type (WT) and 35S::XERICO plants were grown on MS nutrient agar media for 10 days and then treated with 10 μM of ABA for up to 24 hour. Total RNA was isolated at the indicated times after treatment. Each lane was loaded with 10 μg total RNA. The RNA blot was hybridized with [^32P]-labeled gene specific probes for AtNCED3 (SEQ ID NO:452), AtCYP707A2 (SEQ ID NO:428) and RD29a (SEQ ID NO:386). Probing with Actin 8 (SEQ ID NO:455) was used as a RNA loading control. (b) RNA gel blot analysis in response to drought treatment. Wild-type (WT) and 35S::XERICO plants were grown on MS medium for 14 days and then dehydrated (see, EXAMPLE I).
Total RNA was extracted using the Trizol reagent method (Gibco-BRL, Gaithersburg, Md.). For northern blot analysis, 10 μg of total RNA from each sample was denatured and separated using a 1% agarose-formaldehyde gel. RNA was transferred onto a Hybond-N+ membrane (Stratagene, La Jolla, Calif.) by capillary action. Gene-specific probes were prepared by PCR and labeled with [^32P]-dCTP using a Prime-it II Random Primer Labeling kit (Stratagene, La Jolla, Calif.). […]

Arabidopsis thaliana [1] = assay: Effect of ABA on early seedling growth and cotyledon opening; assay type: in vivo
Procedure: (§1) Arabidopsis thaliana, ecotype Columbia (Col), was used as the wild-type plant for phenotypic assays for comparison to transgenic 35S::XERICO Arabidopsis thaliana, plants in these experiments. Unless noted otherwise, plants were grown under sterile conditions on MS nutrient agar media (1×MS basal medium (Sigma, stock number M5519) with 2% sucrose and 0.3% phytagel (Sigma) containing 2% sucrose or on soil in a growth chamber (16 h light/8 h dark) at 23° C., after stratification. For monitoring of hypocotyl elongation and root growth with response salt/osmotic stress, a minimum of 20 seeds were sowed on MS nutrient agar media containing specified treatments, following which the plates were held in the vertical position for 7 days. For testing the effects of ABA on germination and early seedling growth, seeds were grown horizontally. For abiotic stress treatments, wild-type seedlings were grown on MS nutrient agar media containing 2% sucrose for 10-days and then treated the stresses indicated in FIG. 1, for up to 24 hour without a treatment control. Samples were collected at the indicated time and frozen immediately in liquid N2 and were stored at −80° C. until use. Experiments were performed in triplicates and repeated at least three times.
(§2) Since the hypersensitivity to salt or osmotic stress was the most prominent phenotype of the three independent T3 homozygous lines of 35S::XERICO plants, the functional relationship of the gene with ABA, a plant stress hormone involved in salt and drought stress adaptation, was investigated. […] Although 35S::XERICO plants germinated slightly later than wild-type even in the absence of exogenous ABA (FIG. 3c), germination was further delayed following ABA treatment. At 0.1 μM of ABA, 13% of 35S::XERICO plants were germinated 1.5 day after sowing, while 43% of wild-type seeds germinated. […] Germination was scored by the emergence of a radicle (>1 mm). The number of ‘cotyledon opening’ of seedlings at five days after sowing were counted and recorded. […]

Arabidopsis thaliana [2] = assay: Effect of ABA on seed germination (radicle emergence >1 mm); assay type: in vivo
Procedure: as §1, §2

AtTLP9 = target: T1, AtTLP9 (Arabidopsis thaliana, UniProt Q9SQU1); assay: Yeast two-hybrid screening; assay type: binding; details: yeast AH109; truncated XERICO without transmembrane domain as bait
T1 construct: expressed in transfected cells; host or cells: yeast strain AH109
T1 sequence (Q9SQU1 1-380): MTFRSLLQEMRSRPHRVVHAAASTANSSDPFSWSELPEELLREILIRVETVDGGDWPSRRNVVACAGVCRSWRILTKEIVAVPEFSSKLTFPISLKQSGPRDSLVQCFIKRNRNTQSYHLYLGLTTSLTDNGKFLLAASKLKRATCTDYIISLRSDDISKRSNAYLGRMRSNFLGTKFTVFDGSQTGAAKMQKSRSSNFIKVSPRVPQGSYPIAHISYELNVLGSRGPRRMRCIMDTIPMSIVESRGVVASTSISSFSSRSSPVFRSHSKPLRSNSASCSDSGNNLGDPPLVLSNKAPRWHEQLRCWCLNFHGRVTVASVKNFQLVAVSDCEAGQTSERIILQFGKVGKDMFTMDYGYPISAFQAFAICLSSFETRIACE
Procedure: (§3) Two-hybrid screening was performed using the BD Matchmaker™ library construction and screening kit (Clonetech, Palo Alto, Calif.); pGADT7 was used as the base for a GAL4 activation domain (AD) vector and pGBKT7 was used for a GAL4 DNA-binding domain (DNA-BD) vector (pGADT7 and pGBKT7 were obtained from “BD Matchmaker Library Construction & Screening Kits” (Clontech, Palo Alto, Calif.)). The yeast strain AH109 (leu^−, trp^−, Ade^−, his^−) (obtained from “BD Matchmaker Library Construction & Screening Kits (Clontech, Palo Alto, Calif.)) with chromosomally integrated reporter genes lacZ and HIS under the control of the GAL1 promoter activated by the GAL4 transcription factor was used to host all constructs. Truncated XERICO cDNA without a transmembrane domain (SEQ ID NO: 451) was amplified by PCR using primers 5′-[…]-3′ (forward; SEQ ID NO:449) and 5′-[…]-3′ (reverse; SEQ ID NO:450) designed to contain EcoRI and PstI site, respectively. The amplified PCR product was digested with EcoRI and PstI, and subcloned into pGBKT7 as a fusion to the DNA binding domain of GAL4 and verified by sequencing. The pGBKT7/XERICO vector was used as a bait to screen an Arabidopsis thaliana cDNA library in pGADT7 as a fusion to the activation domain of GAL4. […]

AtUBC8 = target: T2, AtUBC8 (Arabidopsis thaliana, UniProt P35131); assay: Yeast two-hybrid screening; assay type: binding; details: yeast AH109; truncated XERICO without transmembrane domain as bait
T2 construct: expressed in transfected cells; host or cells: yeast strain AH109
Procedure: as §3

T2 sequence (P35131 whole entry, the tested form may be a part): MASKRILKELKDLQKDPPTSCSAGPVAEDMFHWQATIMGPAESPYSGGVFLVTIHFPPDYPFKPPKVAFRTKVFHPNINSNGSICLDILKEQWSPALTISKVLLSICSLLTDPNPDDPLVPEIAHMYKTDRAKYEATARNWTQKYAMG

| Molecule | expression of XERICO (XERICO) | transcripts of AtNCED3 (AtNCED3) | early seedling growth (Arabidopsis thaliana [1]; 0.1 μM exogenous ABA, three independent lines of 35S::XERICO plants, compared to wild-type) | cotyledon opening (Arabidopsis thaliana [1]; 1 μM ABA, five days after sowing, 35S::XERICO plants) | plants with opened cotyledons (Arabidopsis thaliana [1]; 1 μM ABA, five days after sowing, wild-type plants) | plants germinated (Arabidopsis thaliana [2]; 0.1 μM ABA, 1.5 day after sowing, 35S::XERICO plants) [%] | seeds germinated (Arabidopsis thaliana [2]; 0.1 μM ABA, 1.5 day after sowing, wild-type seeds) [%] | plants failed to germinate (Arabidopsis thaliana [2]; 1.0 μM ABA, prolonged incubation, 35S::XERICO plants) | interaction with AtTLP9 (AtTLP9) | interaction with AtUBC8 (AtUBC8) |
| --- | --- | --- | --- | --- | --- | --- | --- | --- | --- | --- |
| CC1=CC(=O)CC(C)(C)[C@@]1(O)/C=C/C(C)=C\C(=O)O [ABA, abscisic acid] | no significant changes | clearly increased | arrested immediately after germination | did not develop a cotyledon | approximately 80% | 13 | 43 | more than 20% | – | – |
| XERICO: protein encoded by Arabidopsis thaliana gene AT2G04240; 162 amino acids, RING-H2 zinc-finger motif (protein) MGLSSLPGPSEGMLCVILVNTALSISIVKGIVRSFLGIVGISLSPSSSSPSSVTVSSENSSTSESFDFRVCQPESYLEEFRNRTPTLRFESLCRCKKQADNECSVCLSKFQGDSEINKLKCGHLFHKTCLEKWIDYWNITCPLCRTPLVVVPEDHQLSSNVW | – | – | – | – | – | – | – | – | interacts | interacts |
